Laboratory results published in the supplement of paper PMC10307832.

How the values were obtained:
Assay in all cases: relative viability (nuclei count vs DMSO), 5 days (fraction); higher = more cells survive
[1] = compound: CC[C@@H]1C(=O)N(C)c2cnc(Nc3ccc(C(=O)NC4CCN(C)CC4)cc3OC)nc2N1C1CCCC1 [BI-2536] + NC(=O)Nc1cc(-c2cccc(F)c2)sc1C(=O)N[C@H]1CCCNC1 [AZD7762] (partner 0.2 µM)
Procedure, shortened: (§1)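 A single step with final 0.05% Triton X-100, 1% formaldehyde and 1 ug/ml Hoechst fixed the cells and stained nuclei 5 days after treatment. Lung cancer cell lines in 1536-well plates had been treated by pin tool the day after seeding with one drug alone or a fixed anchor-drug dose plus five library-drug doses (not always all listed) in √10 steps, and nuclei were counted on 4× images. Relative viability is the ratio of nuclei in treated wells to nuclei in vehicle wells, taken as the median of duplicate plates.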

[2] = compound: CC1CC(=O)N(C2=CN=C(N=C2N1C3CCCC3)NC4=C(C=C(C=C4)C(=O)NC5CCN(CC5)C)OC)C [NPK76-II-72-1] + CCNC(=O)c1noc(-c2cc(C(C)C)c(O)cc2O)c1-c1ccc(CN2CCOCC2)cc1 [Luminespib] (partner 0.01 µM)
Procedure, shortened: as §1

[3] = compound: CC[C@@H]1C(=O)N(C)c2cnc(Nc3ccc(C(=O)NC4CCN(C)CC4)cc3OC)nc2N1C1CCCC1 [BI-2536] + CS(=O)(=O)N1CCN(Cc2cc3nc(-c4cccc5[nH]ncc45)nc(N4CCOCC4)c3s2)CC1 [Pictilisib] (partner 1 µM)
Procedure, shortened: as §1

[4] = compound: CC1CC(=O)N(C2=CN=C(N=C2N1C3CCCC3)NC4=C(C=C(C=C4)C(=O)NC5CCN(CC5)C)OC)C [NPK76-II-72-1] + O=C(c1cc(Cc2n[nH]c(=O)c3ccccc23)ccc1F)N1CCN(C(=O)C2CC2)CC1 [Olaparib] (partner 8 µM)
Procedure, shortened: as §1

Cell Line | relative viability ([1]; first compound 0.01 µM) | relative viability ([1]; first compound 0.03162 µM) | relative viability ([1]; first compound 0.1 µM) | relative viability ([1]; first compound 0.3162 µM) | relative viability ([1]; first compound 1 µM) | relative viability ([2]; first compound 0.01 µM) | relative viability ([2]; first compound 0.03162 µM) | relative viability ([2]; first compound 0.1 µM) | relative viability ([2]; first compound 0.3162 µM) | relative viability ([2]; first compound 1 µM) | relative viability ([3]; first compound 0.01 µM) | relative viability ([3]; first compound 0.03162 µM) | relative viability ([3]; first compound 0.1 µM) | relative viability ([3]; first compound 0.3162 µM) | relative viability ([3]; first compound 1 µM) | relative viability ([4]; first compound 0.01 µM) | relative viability ([4]; first compound 0.03162 µM) | relative viability ([4]; first compound 0.1 µM) | relative viability ([4]; first compound 0.3162 µM) | relative viability ([4]; first compound 1 µM)
NCI-H647 | 0.542 | 0.308 | 0.257 | 0.0341 | 0.0503 | 0.189 | 0.188 | 0.143 | 0.202 | 0.23 | 0.396 | 0.376 | 0.129 | 0.0762 | 0.0954 | 0.633 | 0.48 | 0.755 | 0.46 | 0.661
NCI-H1792 | 0.704 | 0.692 | 0.415 | 0.0392 | 0.0281 | 0.404 | 0.504 | 0.469 | 0.5 | 0.556 | 0.307 | 0.354 | 0.207 | 0.111 | 0.0623 | – | 0.362 | 0.357 | 0.419 | 0.742
ChaGo-K-1 | 0.828 | 0.854 | 0.644 | 0.241 | 0.202 | 0.624 | 0.616 | 0.695 | 0.523 | 0.67 | 0.643 | 0.535 | 0.243 | 0.275 | 0.354 | 0.417 | 0.401 | 0.392 | 0.418 | 0.448
LOU-NH91 | 0.722 | 0.76 | 0.42 | 0.316 | 0.329 | 0.305 | 0.324 | 0.347 | 0.33 | 0.345 | 0.545 | 0.516 | 0.474 | 0.284 | 0.276 | 0.906 | 0.926 | 0.893 | 0.785 | 0.991
